Tested on: dendritic cells in tumor draining lymph nodes
Test: Maturation of dendritic cells in tumor draining lymph nodes of mice (Example 5)
Format: in vivo, mouse
Details: 24 hour after intratumoral injection, 10 μg MPLA
Protocol: Immunocompetent mice were injected with Yale University Mouse Melanoma Exposed to Radiation 1.7 (YUMMER1.7) cells for in vivo modeling of immunogenic, cutaneous melanoma. 300,000 cells of YUMMER 1.7 melanoma cells in 50 μL of sterile PBS were intradermally injected into the left flank of syngeneic C57Bl/6 mice.
The mice were watched for tumor growth for eight days until the mice were randomly divided into groups (n=10) based on tumor sizes between 40-90 mm^3. The mice received vehicle (10 μl distilled water), free MPLA (10 μg), NNP-MPLA (10 μg of active MPLA), and BNP-MPLA (10 μg of active MPLA) intratumorally. The mice were sacrificed either at 24 hours or 72 hours after the single intratumoral injection. The tumor draining lymph nodes, both axillary and inguinal, were collected from each mouse. A petri dish was used to collect the lymph nodes, and the frosted ends of microscope slides were used to gently release immune cells from the lymph nodes into fresh CRPMI and placed on ice until resuspension. […]
After lymph node single cell collection, the cells were rinsed with sterile PBS and plated into a 96 round-bottom well plate at a concentration density of 1-2×10^6 cells per well then rinsed again with PBS. […] The stained cells were then detected by flow cytometer (Cytoflex, Beckman Coulter). […]

monophosphoryl lipid A [free MPLA]
dendritic cell maturation (CD80+CD86+ in CD11c+ cells) in TDLN: significant increase

Reference: US20230355801A1, “IMMUNOTHERAPY OF SKIN CANCER USING MPLA-LOADED HPG NANOPARTICLES” (Yale University, priority 2022, published 2023)
